Several values for one entry are separate records, joined by “and”; a condition that tells them apart may be missing. Identical values can stand only once.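 The compound was tested at five concentrations on cells cultured in 96-well plates, with a 48-hour exposure period. GI50 = concentration required for 50% inhibition of growth. TGI marks complete inhibition of growth.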

This passage reports TGI and GI50 results from PubChem BioAssay (NCI).

Assay in all cases: NCI-60 cell line screen, 48 h
For assay [1], the system named is DLD-1 colon.
Assay [2] concerns DMS 114 small cell lung.
The subject of assay [3] is K-562 leukemia.
Assay [4] deals with KM20L2 colon.
In assay [5] the test system is LXFL 529 NSCLC.
The test system of assay [6] is M19-MEL melanoma.
Assay [7] concerns NCI-H522 lung.
In assay [8] the test system is RXF 393 renal.
Assay [9] has as its system SK-MEL-5 melanoma.
The subject of assay [10] is SNB-78 CNS.

With `COc1ccc(N2C(=O)C3c4[nH]c5ccccc5c4C4CCCCC4C3C2=O)cc1` (stereo not given), the TGI in assay [1] is over 100 µM; in assay [2] it was over 100 µM; in assay [3], 73.8 µM; in assay [4], over 100 µM; in [5], 84.9 µM; in assay [6] it was over 100 µM. In addition, the TGI in assay [7] was over 100 µM; in [8], 55.6 µM; in assay [9], 66 µM; in [10], 12.1 µM.

For `O=S1Nc2c(Cl)cc(Cl)c(Cl)c2S1` (stereo not given), the TGI in assay [1], in assay [2], in [3], in assay [4], in [5] and in assay [6] was over 100 µM throughout. The TGI in [7], in assay [8], in assay [9] and in [10] was over 100 µM throughout.

Turning to `N#CCC(=O)N1CCCCCCC1`, the TGI is over 100 µM in assay [1]; 91.7 µM in assay [2]; over 100 µM in [3]; over 100 µM in assay [4]; over 100 µM in assay [5]; over 100 µM in assay [8]. Moreover, the TGI in assay [9] and in assay [10] was over 100 µM throughout.

As for `O=C(O)CCC(NC(=O)c1ccc(Nc2nc3cc(C(F)(F)F)ccc3nc2C(=O)O)cc1)C(=O)O` (stereo not given), the TGI in assay [3], in assay [7], in assay [8] and in [9] was over 100 µM each time.

Take `Cc1cn(S(=O)(=O)c2ccccc2)c2c(OCc3ccccc3)cc(NS(C)(=O)=O)cc12`: the TGI is over 100 µM in assay [3], over 75.9 µM in [7], over 100 µM in assay [8] and 16.6 µM in assay [9].

In the case of `Cc1sc2nc3n(c(=O)c2c1C)N=CN(c1ccc(F)cc1)C3`, the TGI in assay [3], in [7], in assay [8] and in [9] was over 100 µM each time.

Take `CCOC(=O)/C=C(\C(=O)OCC)n1ccc(=O)[nH]c1=O`: the TGI in assay [3] is 19.1 µM; in [7] it was 2.12 µM; in assay [8] it was 24.6 µM; in [9] it was over 56.7 µM.

Regarding `Cc1ccc(NC(=O)CSC(N)=O)cc1C`, the TGI in assay [3], in assay [7], in [8] and in [9] was over 100 µM throughout.

`N#CC(C#N)=C1C(=O)NC(N)=C1C#N`: the TGI in assay [3], in assay [7], in assay [8] and in assay [9] was over 100 µM in each case.

For the compound `CCOC(=O)[C@@H]1ON2OC(OC3CCCC3(c3ccccc3)c3ccccc3)C(OC(C)=O)[C@H]3OC(=O)[C@@H]1C32` (stereo not given in full), the TGI was over 100 µM in assay [3], 72.2 µM in assay [7], 84.2 µM in assay [8] and over 100 µM in assay [9].

Consider `Cc1ccc(N=C2C(=Nc3ccc(C)cc3)N(c3ccc(C)cc3)C(=S)N2C(=O)c2ccccc2)cc1`, for which the TGI in [3], in [7], in [8] and in assay [9] was over 100 µM in each case.

With `O=c1[nH]c(=S)c2cc3c(=S)[nH]c(=O)n(CCO)c3nc2n1CCO`, the TGI in [3], in assay [7], in assay [8] and in [9] was over 100 µM each time.

`O=C1C(=Cc2ccc(Cl)c(Cl)c2)C([O-])=C([P+](c2ccccc2)(c2ccccc2)c2ccccc2)C([O-])=C1[P+](c1ccccc1)(c1ccccc1)c1ccccc1`: the TGI worked out at 8.33 µM in [3], 4.1 µM in [7], 3.35 µM in [8] and 5.24 µM in assay [9].

Regarding `CCOC(=O)c1c(-c2cccc3ccccc23)c(C#N)c(=S)n(C2OC(COC(C)=O)C(OC(C)=O)C(OC(C)=O)C2OC(C)=O)c1C` (stereo not given), the TGI in assay [3], in assay [7], in [8] and in assay [9] was over 100 µM each time.

Turning to `O=[N+]([O-])c1cccc2nccc(NCCCO)c12`, the TGI in assay [3] is 49.3 µM; in assay [7] it was 20 µM; in assay [8], 21.5 µM; in [9] it was 14.4 µM.

Consider `CCOc1ccc2c(c1)c(=O)c1c(NCCN(CC)CC)ccc3nnn2c31`, for which the TGI in assay [3] is over 66.2 µM; in [7], 27.8 µM; in assay [8], 25.5 µM; in assay [9], 31.1 µM.

For `S=c1[nH]c2ccc(I)cc2c(=S)n1Cc1ccccc1`, the TGI stood at 14.6 µM in [3], 16.5 µM in [7], 9.21 µM in assay [8] and 13.2 µM in [9].

With `C=C(c1ccccc1)c1ccccc1-c1cc(-c2ccccc2)cc(-c2ccccc2)n1`, the TGI in [3], in assay [7], in assay [8] and in [9] was over 100 µM throughout.

As to `NC(CSSCC(N)Cc1ccccc1)Cc1ccccc1` (stereo not given), the TGI in assay [1], in assay [2], in [3], in assay [4], in [5] and in [6] was over 100 µM in each case. Also, the TGI in [7] is 30.9 µM; in assay [9], 50.4 µM; in [10], over 100 µM.

Regarding `O=C1CC2CCC(C1)S2=O` (stereo not given), the TGI in assay [3], in [7], in assay [8] and in assay [9] was over 100 µM each time.

With `O=c1oc2ccccc2c(O)c1C(C/C(CCN1CCCC1)=N\Nc1ccccc1)c1ccccc1` (stereo not given), the TGI in [1], in [3], in [4], in assay [5], in [6] and in assay [7] was over 100 µM each time. For the same compound, the TGI was 93 µM in [8], over 100 µM in assay [9] and over 100 µM in assay [10].

Turning to `CCC(NC1=NCCO1)c1cccs1` (stereo not given), the TGI in assay [3] worked out at 47.4 µM; in [7], 35.6 µM; in assay [8], 33.2 µM; in [9], 30.6 µM.

As to `CC(=O)c1c2n(n(-c3ccccc3)c1=O)C(=O)c1nccnc1-2`, the TGI in assay [3], in [7], in assay [8] and in [9] was over 100 µM each time.

As to `COc1cc(CS(=O)c2ccc(O)cc2)cc(OC)c1OC` (stereo not given), the TGI in [3], in assay [7], in assay [8] and in [9] was over 100 µM throughout.

Consider `Oc1ccc(Cl)cc1C1=NC(/N=C\c2ccccc2)=NC(c2ccccc2)C1` (stereo not given), for which the TGI in assay [3] was over 100 µM; in assay [7] it was over 100 µM; in [8], over 100 µM; in assay [9], 61.2 µM.

In the case of `CC(C)(C)CC(C)(C)c1ccc(O)c(C[N+](C)(C)[O-])c1`, the TGI in assay [3], in [7], in assay [8] and in assay [9] was over 100 µM throughout.

`COc1ccc(Nc2nc(N)c(C(=O)c3cccs3)s2)cc1`: the TGI in assay [3] is over 100 µM; in assay [7], over 100 µM; in assay [8] it was 33.8 µM; in [9], 12.8 µM.

With `[N-]=[N+]=C(C(=O)N1CCCC1=O)S(=O)(=O)c1ccccc1`, the TGI in assay [3], in assay [7], in assay [8] and in assay [9] was over 100 µM throughout.

Turning to `CC(=O)/C(=C/N1CCNC1=S)C(=O)Nc1ccccc1C`, the TGI in [3], in [7], in [8] and in assay [9] was over 100 µM in each case.

With `C/C=C(/C)C(=O)O[C@H]1[C@H](O)CC(c2ccc3c(c2O)C(O)=C2C(=O)C4(OC)C(O)=C(C(N)=O)C(=O)[C@H](CC(=O)c5ccccc5O)C4CC2[C@@]3(C)OC)O[C@@H]1C` (stereo not given in full), the TGI in assay [1] stood at 3.85 µM; in assay [2], 0.0292 µM; in [3], 10.7 µM; in [4], 0.0623 µM; in assay [5], 0.973 µM; in [6], 0.768 µM. Further, the TGI was 1.21 µM and 1.83 µM in assay [7]; 0.0149 µM and 0.0199 µM in assay [9].

Consider `Cn1c(O)c(C=Nc2ccccc2Cl)c(=O)n(C)c1=O`, for which the TGI in [3] was over 100 µM; in assay [7] it was over 100 µM; in [8], 45.4 µM; in [9], over 100 µM.

In the case of `COc1ccc(C(=O)/C=C/c2cc(O)c(O)cc2F)c(OC)c1`, the TGI in assay [3] is over 43.1 µM; in assay [7], 3.19 µM; in assay [8] it was 26.7 µM; in [9] it was 20.9 µM.

On to `CN(Cc1cc(Cl)c(Cl)cc1NC(=O)CN)[C@H]1CCCC[C@@H]1N1CCCC1`, for which the TGI in assay [3] was 35.9 µM; in assay [7], 40.4 µM; in assay [8], over 100 µM; in assay [9], 32.1 µM.

For `CN1CCN(C2=CC(=O)c3c(O)ccc(O)c3C2=O)CC1`, the TGI was determined as 1.72 µM in assay [3], 3.17 µM in assay [7], 2.93 µM in assay [8] and 0.325 µM in assay [9].

As for `C[N+](C)(CCNC(=O)c1cccc2cc3ccccc3nc12)Cc1ccc([N+](=O)[O-])s1`, the TGI in assay [3], in assay [7], in assay [8] and in [9] was over 25 µM each time.

Regarding `Oc1cc(Br)cc2cc(Cl)cnc12`, the TGI in assay [3] is 12.3 µM; in assay [7], 10.6 µM; in assay [8] it was 15.2 µM; in assay [9], 15.4 µM.

Turning to `O=c1c2ccccc2nc(N/N=C/c2ccccc2O)n1-c1ccccc1`, the TGI in assay [3] was over 100 µM; in assay [7], 74.7 µM; in [8], over 100 µM; in assay [9] it was over 100 µM.

For `Cc1c(C(=O)O)n2cnnc2c2ccccc12`, the TGI in assay [3], in assay [7], in assay [8] and in [9] was over 100 µM each time.

In the case of `Brc1ccc2c(-c3csc(-c4c[nH]c5ccccc45)n3)c[nH]c2c1`, the GI50 in assay [3] was 18.8 µM. In addition, the TGI in [3] stood at 37.5 µM; in assay [7], 32.2 µM; in assay [8] it was 38.8 µM; in [9], 28.6 µM.

`O=[N+]([O-])C(Cl)=C/C(=C(\Cl)SCc1ccccc1)[N+](=O)[O-]`: the TGI in [3] came to 30.5 µM; in assay [7] it was 46.2 µM; in [8], 26.3 µM; in [9] it was 47.3 µM.

As to `C=C(C(=O)O[C@H]1C(=O)C2=C(C)CCC3C(=C)C(=O)O[C@@H]3C2[C@]1(C)O)C1CC[C@]2(C)CCCC(=C)[C@H]2C1` (stereo not given in full), the TGI was over 20.1 µM in assay [3]; 8.55 µM in assay [7]; 2.52 µM and 3.65 µM in [8]; 15.8 µM and 29.7 µM in assay [9]. Moreover, the results for the GI50 in assay [8] and in [9] were 1.79 µM and 8.45 µM, respectively.

On to `CCCC(=O)[O-].N.N.N.N.N.[Co+3].[O-][Cl+3]([O-])([O-])[O-]`, for which the GI50 in assay [1], in [4], in assay [5] and in assay [10] was over 100 µM in each case. Besides, the TGI in assay [1], in [3], in [4], in assay [5], in [7] and in [9] was over 100 µM each time. In addition, in assay [10], the TGI is over 100 µM.

For `CC(=O)N/C(=C\c1ccc(Cc2nc3c([nH]2)C(=O)c2ccccc2C3=O)cc1)c1nc2c([nH]1)C(=O)c1ccccc1C2=O`, the TGI in [1], in [2], in assay [3], in [4], in assay [5] and in assay [6] was over 100 µM each time. Also, the TGI in assay [7], in assay [8] and in [9] was over 100 µM throughout.

Consider `c1ccc(CN2CCN3CCN(CC2)CCN(Cc2ccccc2)CC3)cc1`, for which the TGI in assay [3] came to 25.6 µM; in assay [7] it was 16 µM; in assay [8], 21.3 µM; in assay [9], 4.96 µM.

Take `CCOC(=O)C(NC(=O)OC(C)(C)C)C(=O)OCC`: the TGI in assay [3], in assay [7], in assay [8] and in [9] was over 100 µM throughout.
